This is an account of results in article PMC5007650, “Crystal structure of the two-subunit tRNA m^1A58 methyltransferase TRM6-TRM61 from Saccharomyces cerevisiae” (Scientific Reports, 2016).

A word on the Kd: it is the equilibrium constant for the complex coming apart. Higher therefore signals a looser complex.

Assay in all cases: isothermal titration calorimetry, single-site fit
What all share (format): binding
(In general: Isothermal titration calorimetry measures the heat released or taken up as one component is titrated into another.)

Experiment [1] concerns the target T1, TRM6-TRM61 holoenzyme (Saccharomyces cerevisiae, UniProt P46959, V169A).
T1 construct: gene GCD14; full-length TRM6 (478 residues) and TRM61 co-expressed from pETDuet-TRM6-TRM61 in bacteria; Ni-NTA and gel filtration; with tRNA (adenine(58)-N(1))-methyltransferase non-catalytic subunit TRM6
From the text:
(§1) isothermal titration calorimetry, single-site fit on TRM6-TRM61 holoenzyme

In experiment [2] the target is T2, TRM6-TRM61 holoenzyme (Saccharomyces cerevisiae, UniProt P46959, F140A).
T2 construct: gene GCD14; full-length TRM6 (478 residues) and TRM61 co-expressed from pETDuet-TRM6-TRM61 in bacteria; Ni-NTA and gel filtration; with tRNA (adenine(58)-N(1))-methyltransferase non-catalytic subunit TRM6
T2 sequence (P46959 whole entry F140A): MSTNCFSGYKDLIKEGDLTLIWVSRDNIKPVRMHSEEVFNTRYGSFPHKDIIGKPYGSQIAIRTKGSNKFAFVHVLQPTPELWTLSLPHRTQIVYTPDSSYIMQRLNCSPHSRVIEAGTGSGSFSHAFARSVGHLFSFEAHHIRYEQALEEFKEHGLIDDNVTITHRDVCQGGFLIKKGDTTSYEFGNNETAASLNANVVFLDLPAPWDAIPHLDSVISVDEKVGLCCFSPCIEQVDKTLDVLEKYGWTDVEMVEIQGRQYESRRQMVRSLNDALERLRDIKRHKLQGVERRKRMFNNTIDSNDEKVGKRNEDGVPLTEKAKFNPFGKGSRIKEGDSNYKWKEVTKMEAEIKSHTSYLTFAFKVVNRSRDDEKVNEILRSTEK
T2 sequence (P41814 whole entry partner): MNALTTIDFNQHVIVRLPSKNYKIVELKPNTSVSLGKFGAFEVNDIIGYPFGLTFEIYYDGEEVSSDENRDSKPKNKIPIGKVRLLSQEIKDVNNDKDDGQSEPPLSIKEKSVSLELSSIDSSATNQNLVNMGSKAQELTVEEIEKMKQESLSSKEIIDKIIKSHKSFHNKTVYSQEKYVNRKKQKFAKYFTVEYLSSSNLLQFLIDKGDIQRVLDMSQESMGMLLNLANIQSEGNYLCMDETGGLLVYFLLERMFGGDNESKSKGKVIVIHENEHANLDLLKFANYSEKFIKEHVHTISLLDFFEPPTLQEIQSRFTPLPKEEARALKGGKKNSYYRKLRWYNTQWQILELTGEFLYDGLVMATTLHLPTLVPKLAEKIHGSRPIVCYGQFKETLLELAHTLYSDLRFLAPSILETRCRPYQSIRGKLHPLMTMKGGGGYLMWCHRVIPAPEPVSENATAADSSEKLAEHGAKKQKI
Excerpt: as §1

For experiment [3], the target named is T3, TRM6-TRM61 holoenzyme (Saccharomyces cerevisiae, UniProt P46959, F124A).
T3 construct: gene GCD14; full-length TRM6 (478 residues) and TRM61 co-expressed from pETDuet-TRM6-TRM61 in bacteria; Ni-NTA and gel filtration; with tRNA (adenine(58)-N(1))-methyltransferase non-catalytic subunit TRM6
T3 sequence (P46959 whole entry F124A): as the sequence (P46959 whole entry F140A) above, with F124A, A140F counted along it
T3 sequence (P41814 whole entry partner): as the sequence (P41814 whole entry partner) above
Excerpt: as §1

For experiment [4], the target named is T4, TRM6-TRM61 holoenzyme (Saccharomyces cerevisiae, UniProt P46959).
T4 construct: gene GCD14; full-length TRM6 (478 residues) and TRM61 co-expressed from pETDuet-TRM6-TRM61 in bacteria; Ni-NTA and gel filtration; with tRNA (adenine(58)-N(1))-methyltransferase non-catalytic subunit TRM6
T4 sequence (P46959 whole entry): as the sequence (P46959 whole entry F140A) above, with A140F counted along it
T4 sequence (P41814 whole entry partner): as the sequence (P41814 whole entry partner) above

T1 sequence (P46959 whole entry V169A): as the sequence (P46959 whole entry F140A) above, with A140F, V169A counted along it
T1 sequence (P41814 whole entry partner): as the sequence (P41814 whole entry partner) above

`C[S+](CC[C@H](N)C(=O)O)C[C@H]1O[C@@H](n2cnc3c(N)ncnc32)[C@H](O)[C@@H]1O` (stereo partly shown) [SAM]: the Kd in experiment [1] came out at 409 ± 74.7 µM; in experiment [2] it was 787 ± 64.5 µM; in experiment [3], 317 ± 34.7 µM; in experiment [4], 44.3 ± 4.55 µM.
